Article PMC12040169 (PLOS Biology, 2025)

test: in vitro; conditions: human, hela cells, % viability

In order of falling viability at 28.5 h, 10 µM:
1. CCC12CN3CC(CC)(CN(C1)C3c1ccccc1[N+](=O)[O-])C2=O (stereo not shown) [CBK264604]  116%
2. Cn1c(=O)sn(-c2ccccc2)c1=O [CBK113677]  115%
3. CCOc1ccc(S(=O)(=O)NC(C)C(=O)O)cc1C (stereo not shown) [CBK270178]  114%
4. Cc1ccc(-c2nnc(-c3cccc(S(=O)(=O)N4CCOCC4)c3)o2)cc1 [CBK263215]  112%
5. CCOC(=O)C1(Cc2cc(-c3ccccc3)no2)CCNCC1 [CBK284924]  111%
6. O=C(C1CCCC1)N1CCCC(c2nccnc2-c2cccc(C(F)(F)F)c2)C1 (stereo not shown) [CBK286221]  110%
7. O=C(O)c1ccc(N2C(=O)CC(S/C(=N\c3ccccc3)Nc3ccccc3)C2=O)cc1 (stereo not shown) [CBK262191]  107%
8. Cn1c(=O)n(CC(=O)N2CCc3ccccc32)c2cccnc21 [CBK283792]  106%
9. O=C1CC(C(=O)Nc2ncccn2)C(c2ccccc2)O1 (stereo not shown) [CBK265130]  106%
10. COc1ccc(CN(Cc2ccc(NC(C)=O)cc2)[C@@H]2COC[C@H]2c2ccc(F)cc2)cc1 [CBK286488]  105%
11. OC(COCc1ccc2c(c1)OCO2)CN1CCN(c2ccccn2)CC1 (stereo not shown) [CBK278246C]  105%
12. O=C1N(CCc2ccccc2)CC=CCC12CN(Cc1ccc3[nH]ccc3c1)CCO2 (stereo not shown) [CBK286130]  105%
13. Cc1c(CN(C)CC2CCN(C)C2)cnn1Cc1ccccc1 (stereo not shown) [CBK282616]  105%
14. CC1(C)CC(=O)c2sc(NC(=O)C3CC3)nc2C1 [CBK287329]  104%
15. Cn1ncc2c(SCc3cc4c(cc3Br)OCCO4)ncnc21 [CBK297732]  104%
16. Cc1ccc(CCNc2c([N+](=O)[O-])nn(-c3ccc4c(c3)OCCO4)[n+]2[O-])cc1 [CBK268225]  103%
17. CC(=O)Nc1ccc(NC(=O)CC2(CC(=O)O)CCCCC2)cc1 [CBK299816]  102%
18. CCOC(=O)NC(=O)C(C#N)/C=N/NC(=O)CCCNc1ncc(C(F)(F)F)cc1Cl (stereo not shown) [CBK008354]  101%
19. COc1ccc(-n2nc(C)c3onc(C)c3c2=O)cc1 [CBK000853]  101%
20. CC(C)CN(CCc1ccc(O)cc1)CC(=O)NC1(c2ccccc2)CCC1 [CBK067781T]  100%
21. Cc1ccc(N2CCCN(C(=O)COc3ccccc3F)CC2)nn1 [CBK305261]  99.4%
22. CC(Oc1ccc(Cl)cc1Cl)C(=O)Nc1ccc(OCC(=O)O)cc1 (stereo not shown) [CBK266542]  98.8%
23. O=C(N/N=C/c1ccc[nH]1)C1CC1c1ccccc1 (stereo not shown) [CBK022120]  98.8%
24. COc1cccc(C(=O)Nc2ccc(Br)cc2C(=O)O)c1 [CBK022487]  98.7%
25. COc1ncc(-c2nccnc2N2CCN(C)CC2)c(OC)n1 [CBK036595]  98.7%
26. O=C(NCCc1noc(CO)n1)N(Cc1ccsc1)C1CCCCC1 [CBK307273]  98.5%
27. Cc1nn(C)cc1CN(Cc1ccc(F)cc1)CC1CCCO1 (stereo not shown) [CBK282472]  98.5%
28. CC(C)(C)OC(=O)N1CCC[C@@H](C(=O)c2cccnc2)C1 [CBK284284]  98.2%
29. Cc1cc(OC(C)C(=O)Nn2cnnc2)ccc1Cl (stereo not shown) [CBK269690]  98.1%
30. CCC1CCCCN1C(=O)c1cccc(OC)c1 (stereo not shown) [CBK081504]  98%
31. COc1cc(NC(=O)N2CCC(C(=O)O)CC2)cc(OC)c1OC [CBK156076]  97.8%
32. CCc1cc(Br)ccc1S(=O)(=O)NC1CCOC1=O (stereo not shown) [CBK044385]  97.5%
33. Cc1nn(CCC(=O)NC(C)Cc2ccccn2)c(C)c1Cl (stereo not shown) [CBK281419]  97.1%
34. CCOc1ccccc1C(=O)N1CCC(Cc2ccc(-c3ccccc3)cc2)(C(N)=O)CC1 [CBK285775]  97%
35. N#Cc1c(F)cccc1N1CCCC(C(=O)Nc2nncs2)C1 (stereo not shown) [CBK306335]  96.8%
36. Cc1cc(C)c2c(CC(=O)NCCCN3CCOCC3)coc2c1 [CBK268307]  96.8%
37. S=C(Nc1ccccc1)N(Cc1ccccc1)Cc1ccncc1 [CBK267991]  96.8%
38. Nc1nc(OCc2ccncc2)cnc1-c1cnn(Cc2ccccc2)c1 [CBK145194]  96.7%
39. c1cncc(CN2CCC(Oc3cncc(OCC4COc5ccccc5O4)n3)C2)c1 (stereo not shown) [CBK084365]  96.5%
40. CCN1C(=O)/C(=C/c2cc3c(cc2Cl)OCO3)NC1=S [CBK265117]  96.5%
41. CCCc1ncc(C[n+]2ccccc2C)c(N)n1 [CBK024255C]  96.1%
42. O=C(NCc1ccco1)C1(c2ccccc2)CCCC1 [CBK149539]  96%
43. C[C@@H](Cn1nc2c(cc1=O)CCCC2)NC(=O)Cc1cccc(F)c1 [CBK284527]  95.9%
44. Cc1cc(NC(=O)C(C)SCc2cccc(C(F)(F)F)c2)no1 (stereo not shown) [CBK306233]  95.5%
45. CCOc1ccsc1C(=O)N1CCc2ccccc2C1 [CBK200339]  95.1%
46. COc1ccc([C@@]23CC[C@@H](NC(=O)c4ccc(SC(F)(F)F)cc4)C[C@@H]2N(C)CC3)cc1OC [CBK076654T]  94.9%
47. O=C(Nc1cccc2[nH]ccc12)c1ccoc1 [CBK159659]  94.8%
48. Cc1ccc(S(=O)(=O)Nc2ccc(C(=O)O)cc2)cc1[N+](=O)[O-] [CBK034055]  94.8%
49. CCCc1[nH]n(CC(=O)OCC)c(=O)c1Cc1c(Cl)cccc1Cl [CBK104764]  94.4%
50. CCOC(=O)C1(N)CCCC1 [CBK073836C]  94.4%
51. CC(=O)N1CCC(C(=O)NC(=O)NCc2ccc3c(c2)CCO3)CC1 [CBK034837]  93.8%
52. CN(C)CCCNC(=O)C1CCN(c2nc3c(-c4ccccc4F)csc3c(=O)[nH]2)CC1 [CBK215438]  93.7%
53. CN1CCC(=NNC(=O)CN(c2ccc(Oc3ccccc3)cc2)S(C)(=O)=O)CC1 [CBK262338]  93.2%
54. O=C(NOCc1ccccc1)c1nn(-c2ncccn2)c2ccccc12 [CBK048503]  93.1%
55. O=C1C2C3C=CC(C3)C2C(=O)N1CCNCCO (stereo not shown) [CBK264414]  93%
56. O=C(NCCCC1CCOC1)c1cnn(-c2ccc(F)cc2)c1 (stereo not shown) [CBK283288]  92.5%
57. O=C(CCCN1C(=O)c2cccc3cccc(c23)C1=O)NO [CBK261092]  92%
58. Nc1nc(COc2ccc(F)cc2)nc(N2CCOCC2)n1 [CBK288183]  91.5%
59. CSc1ccc2cc(CSc3nnc(-c4cccs4)n3CC(=O)O)c(Cl)nc2c1 [CBK295298]  91.3%
60. O=C(NCCc1cccs1)Nc1cc(C(F)(F)F)cc(C(F)(F)F)c1 [CBK043718]  91.1%
61. O=S(=O)(c1ccc(C(F)(F)F)cc1)N1CCC2(CC1)OCCO2 [CBK044520]  91.1%
62. CCOC(=O)N1CCC(NC(=O)N(CCCN(C)C)Cc2ccc3c(c2)OCO3)CC1 [CBK159231]  91%
63. c1ccc(OCCN2CCC3(C2)NCCc2[nH]ccc23)cc1 (stereo not shown) [CBK084595T]  90.9%
64. CC1Cc2ccccc2N1C(=O)Cn1c(=O)n(C)c2ncccc21 (stereo not shown) [CBK283793]  90.7%
65. O=C(O)c1cccc2c1C(=O)C(CC1CCCO1)N2 (stereo not shown) [CBK287140]  90.6%
66. CN1CCN(c2n[nH]c(N)n2)CC1 [CBK026743]  90.5%
67. CC(=O)Nc1cc(Cl)ccc1OS(=O)(=O)c1ccc(Cl)cc1 [CBK264992]  90.3%
68. CSCCN1CCC(Oc2nccnc2OCc2cccnc2)CC1 [CBK083173]  90.3%
69. CCOC(=O)c1cc(S(=O)(=O)NC2CCN(C(=O)OCC)CC2)cn1C [CBK304665]  90.1%
70. Nc1cc2cccnc2c(-c2ccc(OC(F)(F)F)cc2)n1 [CBK061926]  90%
71. Cc1cccnc1Nc1ccc(C2CCCCN2Cc2ccc3nccnc3c2)cn1 (stereo not shown) [CBK286133]  89.8%
72. O=C(Oc1cccc2cccnc12)c1ccc(Br)o1 [CBK019461]  89.4%
73. O=C(CSc1nnc(-c2ccccc2O)n1Cc1ccccc1)NC12CC3CC(CC(C3)C1)C2 [CBK266075]  88.9%
74. CCCc1csc(C2CN3CCCC3CO2)n1 (stereo not shown) [CBK304799]  88.3%
75. Cc1nc(C2CCCN(C(=O)c3cscn3)C2)c2sccn12 (stereo not shown) [CBK282236]  88.2%
76. O=C(O)c1cc(Sc2nnnn2-c2ccccc2)c2ccccc2c1O [CBK006925]  87.8%
77. COc1ccc(C(=O)c2sc3nc(C)cc(C)c3c2N)cc1 [CBK115362]  87.7%
78. CCN(CC)C(=O)c1ccccc1NS(=O)(=O)c1ccc(F)cc1 [CBK045414]  87.7%
79. Cc1ccc(C(=O)N[C@@H]2C[C@H](C)CC[C@H]2C(C)C)cc1C [CBK085823]  87.1%
80. COc1ccc2[nH]c3c(c2c1)CCNC31CCN(Cc2ccccc2)C1 (stereo not shown) [CBK073952C]  86.5%
81. Cc1nnsc1C(=O)N1CCN(c2cc(C(F)(F)F)ccn2)CC1 [CBK008467]  86.4%
82. O=C(NCc1cc(Br)ccc1F)C1CC(=O)N(Cc2ccccn2)C1 (stereo not shown) [CBK305242]  85.7%
83. CC[C@@H]1C(=O)OC[C@@H]1Cc1cncn1C [CBK005338C]  85.3%
84. CCCCN(C)CCNC(=O)c1ccc2c(c1)NC(=O)C(N1CCCCC1)S2 (stereo not shown) [CBK071799]  85.1%
85. O=C(O)/C(Cl)=C(\Cl)C(=O)N1CCC2(CC1)OCCc1c2[nH]c2ccccc12 [CBK047035]  85%
86. Cc1nnc2sc(-c3ccncc3)nn12 [CBK269553]  84.6%
87. CCc1nn(CC(=O)N2CCC(C)CC2)c(=O)c2cc3occc3n12 [CBK283675]  76.4%
88. COc1cccc(CC(=O)Nc2ccc3c(C)cc(C)nc3n2)c1 [CBK287992]  74.1%
89. O=C1NCC2(C/C=C/CCOc3ccccc31)CCN(C(=O)CCc1ccccc1)CC2 [CBK292017]  71.2%
90. CCOc1ccc(Nc2nc(-c3ccc(C)cc3C)c(CC(=O)O)s2)cc1 [CBK264187]  62.5%

same assay, conditions: human, hela cells, % viability, bulk resorufin, single well

CC(C)(C)OC(=O)N1CCC2(CC1)OCc1cc(-c3cccc(C(=O)O)c3)ccc1O2 [CBK107809] showed a viability at 28.5 h, 10 µM of 87.5%.
